Measurements from patent publication US20160168147A1, “ISOTOPICALLY ENRICHED AZAINDOLES” (Vertex Pharmaceuticals Incorporated, priority 2013, published 2016).

Test system: Cryopreserved Human Hepatocytes
Assay: Assessment of metabolite profile and kinetic isotope effect in human hepatocytes (Example 6)
Type: in vitro ADME
Conditions: 3 μM and 10 μM, sampled at 120 minutes, LC-MS MRM
Procedure: Cryopreserved Human Hepatocytes lot TFF (purchased from Celsis) were used. Hepatocytes were thawed using CHRM and suspended in Williams E media containing cell maintenance supplement package. 1000 μL of a final cell concentration 1 million cells/mL were placed in individual incubation wells (24-well plate set-up). Incubation was conducted at 37° C. and kept in a CO2/O2 humidified incubator. 10 μL of compound stock was spiked into cell the matrix to achieve final incubation concentrations of 3 μM and 10 μM. The matrix was swirled prior to the removal of each time-point and 50 μL of sample were removed and added to 200 μL of acetonitrile containing internal standard, IS. Time-points were sampled at 120 minutes using MRM on an ABSciex API5500-QTrap paired with an Agilent 1290 UPLC and a CTC PAL autosampler. A 20-minute gradient method using a HALO C18 2.1×50 mm 2.7 μm column made by Advanced Materials Technology was used for the analysis. /

For `[2H]c1[nH]c2ncccc2c1-c1nccc(N[C@](C)(CC)C(=O)NCC(F)(F)F)n1` [Compound 1-a, (2R)-2-[[2-(2-deuterio-1H-pyrrolo[2,3-b]pyridin-3-yl)pyrimidin-4-yl]amino]-2-methyl-N-(2.2.2-trifluoroethyl)butanamide], which new metabolites observed is on record?
The new metabolites observed was “no new metabolites were observed”.
